# Target: T1, human Fatty Acid Synthase (Homo sapiens, UniProt P49327)
# T1 construct: made in house
# Test: Human FAS enzyme assay (decrease in NADPH fluorescence)
# Assay type: biochemical
# Conditions: % inhibition at a concentration of 100 micromolar
# Method in brief: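 Readout: decrease in NADPH fluorescence (340 nm ex, 460 nm em) after 60 min at RT, background-subtracted against a read taken before substrate. Substrate mix contained 500 μM malonyl-CoA and 150 μM acetyl-CoA. It was added after 15 min enzyme (0.4 μg in-house human FAS)–compound–NADPH preincubation in Tris pH 7.5 buffer; % inhibition was fitted to IC50.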
# T1 sequence (P49327 whole entry): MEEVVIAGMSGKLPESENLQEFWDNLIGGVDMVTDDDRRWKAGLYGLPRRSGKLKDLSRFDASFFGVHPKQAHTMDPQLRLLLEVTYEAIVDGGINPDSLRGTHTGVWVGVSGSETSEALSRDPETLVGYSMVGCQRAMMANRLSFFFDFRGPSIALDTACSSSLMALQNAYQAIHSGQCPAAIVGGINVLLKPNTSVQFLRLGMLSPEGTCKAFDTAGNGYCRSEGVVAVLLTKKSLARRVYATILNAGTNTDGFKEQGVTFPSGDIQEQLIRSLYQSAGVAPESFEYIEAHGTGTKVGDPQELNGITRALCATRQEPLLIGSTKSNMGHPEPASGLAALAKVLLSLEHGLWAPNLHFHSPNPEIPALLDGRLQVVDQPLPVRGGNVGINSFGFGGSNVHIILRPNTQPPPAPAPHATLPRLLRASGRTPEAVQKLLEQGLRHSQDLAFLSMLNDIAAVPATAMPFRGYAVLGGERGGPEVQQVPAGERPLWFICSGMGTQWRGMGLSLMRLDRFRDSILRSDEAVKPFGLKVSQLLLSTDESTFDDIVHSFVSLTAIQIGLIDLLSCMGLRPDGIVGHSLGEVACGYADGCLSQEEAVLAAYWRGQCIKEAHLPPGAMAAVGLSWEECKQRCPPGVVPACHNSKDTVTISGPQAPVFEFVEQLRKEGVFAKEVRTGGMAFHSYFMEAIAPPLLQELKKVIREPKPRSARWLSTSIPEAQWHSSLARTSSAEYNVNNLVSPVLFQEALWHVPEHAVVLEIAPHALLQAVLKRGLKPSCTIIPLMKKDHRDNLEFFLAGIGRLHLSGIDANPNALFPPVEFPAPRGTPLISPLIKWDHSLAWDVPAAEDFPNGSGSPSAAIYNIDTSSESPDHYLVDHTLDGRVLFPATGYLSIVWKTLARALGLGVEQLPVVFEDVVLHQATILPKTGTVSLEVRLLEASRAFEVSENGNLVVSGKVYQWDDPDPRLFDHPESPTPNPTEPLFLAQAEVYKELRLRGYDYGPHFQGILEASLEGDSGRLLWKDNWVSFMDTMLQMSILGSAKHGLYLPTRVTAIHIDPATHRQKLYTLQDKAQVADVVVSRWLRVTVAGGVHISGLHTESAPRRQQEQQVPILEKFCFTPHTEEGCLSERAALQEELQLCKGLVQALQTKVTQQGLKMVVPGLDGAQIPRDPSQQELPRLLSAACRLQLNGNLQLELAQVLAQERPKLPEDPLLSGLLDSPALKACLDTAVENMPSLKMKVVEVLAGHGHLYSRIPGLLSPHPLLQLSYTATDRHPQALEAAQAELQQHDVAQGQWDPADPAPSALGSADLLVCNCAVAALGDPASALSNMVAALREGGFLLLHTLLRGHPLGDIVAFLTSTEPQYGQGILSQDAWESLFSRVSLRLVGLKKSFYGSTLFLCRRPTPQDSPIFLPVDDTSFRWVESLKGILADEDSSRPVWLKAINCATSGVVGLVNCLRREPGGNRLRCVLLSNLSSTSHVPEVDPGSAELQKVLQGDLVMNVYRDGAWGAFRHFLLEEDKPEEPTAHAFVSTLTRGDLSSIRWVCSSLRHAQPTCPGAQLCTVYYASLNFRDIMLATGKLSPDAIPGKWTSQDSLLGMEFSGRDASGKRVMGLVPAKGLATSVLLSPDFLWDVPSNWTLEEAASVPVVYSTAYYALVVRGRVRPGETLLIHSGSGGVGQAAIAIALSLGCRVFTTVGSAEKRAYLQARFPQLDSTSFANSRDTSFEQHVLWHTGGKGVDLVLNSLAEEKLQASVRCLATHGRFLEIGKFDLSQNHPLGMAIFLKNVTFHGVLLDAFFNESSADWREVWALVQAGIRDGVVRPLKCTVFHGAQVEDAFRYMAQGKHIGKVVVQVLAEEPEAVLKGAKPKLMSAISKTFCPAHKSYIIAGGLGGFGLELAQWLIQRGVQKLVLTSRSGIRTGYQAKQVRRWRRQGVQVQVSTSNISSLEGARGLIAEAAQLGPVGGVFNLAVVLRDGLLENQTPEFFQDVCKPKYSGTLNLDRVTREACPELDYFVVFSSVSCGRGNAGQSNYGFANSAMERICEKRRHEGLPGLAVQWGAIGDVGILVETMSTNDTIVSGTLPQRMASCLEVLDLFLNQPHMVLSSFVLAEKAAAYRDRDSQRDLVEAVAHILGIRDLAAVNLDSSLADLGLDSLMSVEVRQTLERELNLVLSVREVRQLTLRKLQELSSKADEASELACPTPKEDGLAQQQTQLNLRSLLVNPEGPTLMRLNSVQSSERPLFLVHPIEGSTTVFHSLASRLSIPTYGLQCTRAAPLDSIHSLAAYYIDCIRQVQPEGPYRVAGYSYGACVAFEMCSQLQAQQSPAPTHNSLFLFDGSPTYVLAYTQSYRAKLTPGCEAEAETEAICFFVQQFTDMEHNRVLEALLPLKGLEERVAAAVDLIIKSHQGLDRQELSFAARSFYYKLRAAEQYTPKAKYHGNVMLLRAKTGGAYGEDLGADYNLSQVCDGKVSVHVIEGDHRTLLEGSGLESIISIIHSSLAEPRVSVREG
row,Structure (SMILES),inhibition at 100 µM [%]
1,"Cc1ccc(C(=O)N2CCC(c3ccc(C#N)cc3)CC2)cc1NS(=O)(=O)CCN1C(=O)c2ccccc2C1=O [Example 71, N-[5-[4-(4-cyanophenyl)piperidine-1-carbonyl]-2-methyl-phenyl]-2-(1,3-dioxoisoindol-2-yl)ethanesulfonamide]",100
2,"CCCS(=O)(=O)Nc1cc(C(=O)N2CCC(c3ccc(C#N)cc3)CC2)c(C)cc1C [Example 117, N-[5-[4-(4-cyanophenyl)piperidine-1-carbonyl]-2,4-dimethyl-phenyl]propane-1-sulfonamide]",98
3,"Cc1ccc(NS(=O)(=O)CC(C)C)cc1C(=O)N1CCC(c2ccc(C#N)cc2)CC1 [Example 57, N-[3-[4-(4-cyanophenyl)piperidine-1-carbonyl]-4-methyl-phenyl]-2-methyl-propane-1-sulfonamide]",94
4,"Cc1ccc(NS(=O)(=O)c2cnoc2C)cc1C(=O)N1CCC(c2ccc(C#N)cc2)CC1 [Example 39, N-[3-[4-(4-cyanophenyl)piperidine-1-carbonyl]-4-methyl-phenyl]-5-methyl-1,2-oxazole-4-sulfonamide]",80
5,"Cc1ccc(C(=O)N2CCC(c3ccc(CNS(=O)(=O)N(C)C)cc3)CC2)cc1NS(C)(=O)=O [Example 242, N-[5-[4-[4-[(dimethylsulfamoylamino)methyl]phenyl]piperidine-1-carbonyl]-2-methylphenyl]methanesulfonamide]",95.7
6,"Cc1ccc(C(=O)N2CCC(c3ccc(C#N)cc3)CC2)cc1NS(=O)(=O)C1CCNCC1 [Example 115, N-[5-[4-(4-cyanophenyl)piperidine-1-carbonyl]-2-methyl-phenyl]piperidine-4-sulfonamide]",97
7,"N#Cc1ccc(C2CCN(C(=O)c3cc(NS(=O)(=O)Cc4ccccc4)ccc3F)CC2)cc1 [Example 199, N-[3-[4-(4-cyanophenyl)piperidine-1-carbonyl]-4-fluorophenyl]-1-phenylmethane-sulfonamide]",79
8,"CS(=O)(=O)Nc1cc(C(=O)N2CCC(c3ccc(C#N)cc3)CC2)ccc1S(C)(=O)=O [Example 210, N-[5-[4-(4-cyanophenyl)piperidine-1-carbonyl]-2-methylsulfonylphenyl]methanesulfonamide]",91
9,"Cc1ccc(C(=O)N2CCC(c3ccc(C#N)cc3)CC2)cc1NS(=O)(=O)C1CCS(=O)(=O)C1 (stereo not shown) [Example 127, N-[5-[4-(4-cyanophenyl)piperidine-1-carbonyl]-2-methyl-phenyl]-1,1-dioxo-thiolane-3-sulfonamide]",92
10,"CCCCOc1ccc(S(=O)(=O)Nc2cc(C(=O)N3CCC(c4ccc(C#N)cc4)CC3)ccc2C)cc1 [Example 24, 4-butoxy-N-[5-[4-(4-cyanophenyl)piperidine-1-carbonyl]-2-methyl-phenyl]benzenesulfonamide]",83
11,"Cc1ccc(C(=O)N2CCC(c3ccc(C#N)cc3)CC2)cc1NS(=O)(=O)c1cn(C)nc1C [Example 139, N-[5-[4-(4-cyanophenyl)piperidine-1-carbonyl]-2-methyl-phenyl]-1,3-dimethyl-pyrazole-4-sulfonamide]",83
12,"Cc1ccc(NS(=O)(=O)Cc2ccc(F)cc2F)cc1C(=O)N1CCC(c2ccc(C#N)cc2)CC1 [Example 56, N-[3-[4-(4-cyanophenyl)piperidine-1-carbonyl]-4-methyl-phenyl]-1-(2,4-difluorophenyl)methanesulfonamide]",89
13,"COCc1ccc(C(=O)N2CCC(c3ccc(C#N)cc3)CC2)cc1NS(C)(=O)=O [Example 161, N-[5-[4-(4-cyanophenyl)piperidine-1-carbonyl]-2-(methoxymethyl)phenyl]methanesulfonamide]",80
14,"CNC(=O)c1cccc(S(=O)(=O)Nc2cc(C(=O)N3CCC(c4ccc(C#N)cc4)CC3)ccc2C)c1 [Example 83, 3-[[5-[4-(4-cyanophenyl)piperidine-1-carbonyl]-2-methyl-phenyl]sulfamoyl]-N-methyl-benzamide]",98
15,"Cc1ccc(C(=O)N2CCC(c3ccc(C#N)cc3)CC2)cc1NS(=O)(=O)c1ccn(C)n1 [Example 140, N-[5-[4-(4-cyanophenyl)piperidine-1-carbonyl]-2-methyl-phenyl]-1-methyl-pyrazole-3-sulfonamide]",100
16,"Cc1ccc(C(=O)N2CCC(c3ccc(C#N)cc3)CC2)cc1NS(=O)(=O)CCCN(C)C [Example 74, N-[5-[4-(4-cyanophenyl)piperidine-1-carbonyl]-2-methyl-phenyl]-3-dimethylamino-propane-1-sulfonamide]",95
17,"Cc1ccc(NS(=O)(=O)CCCCl)cc1C(=O)N1CCC(c2ccc(C#N)cc2)CC1 [Example 34, 3-chloro-N-[3-[4-(4-cyanophenyl)piperidine-1-carbonyl]-4-methyl-phenyl]propane-1-sulfonamide]",89
18,"Cc1ccc(C(=O)N2CCC(c3ccc(CNC(=O)C(C)C)cc3)CC2)cc1NS(C)(=O)=O [Example 226, N-[[4-[1-(3-methanesulfonamido-4-methylbenzoyl)piperidin-4-yl]phenyl]methyl]-2-methylpropanamide]",81
19,"Cc1ccc(C(=O)N2CCC(c3ccc(C#N)cc3)CC2)cc1NS(=O)(=O)Cc1ccccc1 [Example 4, N-[5-[4-(4-cyanophenyl)piperidine-1-carbonyl]-2-methyl-phenyl]-1-phenyl-methanesulfonamide]",81
20,"COC(=O)NCc1ccc(C2CCN(C(=O)c3ccc(C)c(NS(C)(=O)=O)c3)CC2)cc1 [Example 239, Methyl N-[[4-[1-(3-methanesulfonamido-4-methylbenzoyl)piperidin-4-yl]phenyl]methyl]carbamate]",89.1
21,"Cc1ccc(NS(=O)(=O)CC2CCCCC2)cc1C(=O)N1CCC(c2ccc(C#N)cc2)CC1 [Example 41, N-[3-[4-(4-cyanophenyl)piperidine-1-carbonyl]-4-methyl-phenyl]-1-cyclohexyl-methanesulfonamide]",96
22,"CNCCCS(=O)(=O)Nc1cc(C(=O)N2CCC(c3ccc(C#N)cc3)CC2)ccc1C [Example 75, N-[5-[4-(4-cyanophenyl)piperidine-1-carbonyl]-2-methyl-phenyl]-3-methylamino-propane-1-sulfonamide]",93
23,"Cc1ccc(C(=O)N2CCC(c3ccc(C#N)cc3)CC2)cc1NS(=O)(=O)CCCNS(C)(=O)=O [Example 132, N-[5-[4-(4-cyanophenyl)piperidine-1-carbonyl]-2-methyl-phenyl]-3-methanesulfonamido-propane-1-sulfonamide]",88
24,"N#Cc1ccc(C2CCN(C(=O)c3ccc(C#N)c(NS(=O)(=O)Cc4ccccc4)c3)CC2)cc1 [Example 196, N-[2-cyano-5-[4-(4-cyanophenyl)piperidine-1-carbonyl]phenyl]-1-phenylmethane-sulfonamide]",96
25,"CCCS(=O)(=O)Nc1cc(C(=O)N2CCC(c3ccc(C#N)cc3)CC2)ccc1C [Example 5, N-[5-[4-(4-cyanophenyl)piperidine-1-carbonyl]-2-methyl-phenyl]propane-1-sulfonamide]",92
26,"C#Cc1ccc(C2CCN(C(=O)c3ccc(C)c(NS(C)(=O)=O)c3)CC2)cc1 [Example 172, N-[5-[4-(4-ethynylphenyl)piperidine-1-carbonyl]-2-methylphenyl]methanesulfonamide]",85
27,"Cc1ccc(NS(=O)(=O)CCc2ccccc2)cc1C(=O)N1CCC(c2ccc(C#N)cc2)CC1 [Example 58, N-[3-[4-(4-cyanophenyl)piperidine-1-carbonyl]-4-methyl-phenyl]-2-phenyl-ethanesulfonamide]",92
28,"Cc1ccc(C(=O)N2CCC(c3ccc(C#N)cc3)CC2)cc1NS(=O)(=O)c1cccc(C(N)=O)c1 [Example 81, 3-[[5-[4-(4-cyanophenyl)piperidine-1-carbonyl]-2-methyl-phenyl]sulfamoyl]benzamide]",90

# Same assay, conditions: compounds excluded from the claims by proviso
row,Structure (SMILES),IC50s in the range of about 0.001 μM to about 30 μM
1,Cc1ccc(C(=O)N2CCC(c3ccccc3)CC2)cc1NS(C)(=O)=O [N-[2-methyl-5-(4-phenylpiperidine-1-carbonyl)phenyl]methanesulfonamide],do not have IC50s in the range of about 0.001 μM to about 30 μM
2,"Cc1ccc(C(=O)N2CCC(c3ccc(S(=O)(=O)N(C)C)cc3)CC2)cc1NS(C)(=O)=O [4-[1-(3-methanesulfonamido-4-methylbenzoyl)piperidin-4-yl]-N,N-dimethylbenzenesulfonamide]",do not have IC50s in the range of about 0.001 μM to about 30 μM
3,Cc1ccc(C(=O)N2CCC(c3cccc(F)c3)CC2)cc1NS(C)(=O)=O [N-[5-[4-(3-fluorophenyl)piperidine-1-carbonyl]-2-methylphenyl]methanesulfonamide],do not have IC50s in the range of about 0.001 μM to about 30 μM
4,"Cc1ccc(C(=O)N2CCC(c3ccc(C#N)c(C#N)c3)CC2)cc1NS(C)(=O)=O [N-[5-[4-(3,4-dicyanophenyl)piperidine-1-carbonyl]-2-methylphenyl]methanesulfonamide]",do not have IC50s in the range of about 0.001 μM to about 30 μM
5,CS(=O)(=O)Nc1cc(C(=O)N2CCC(c3ccc(C#N)cc3)CC2)ccc1Cl [N-[2-chloro-5-[4-(4-cyanophenyl)piperidine-1-carbonyl]phenyl]methanesulfonamide],do not have IC50s in the range of about 0.001 μM to about 30 μM

# Same assay, conditions: unit inferred
row,Structure (SMILES),IC50 [nM]
1,"COCCOCC#Cc1ccc(C2CCN(C(=O)c3ccc(C)c(NS(C)(=O)=O)c3)CC2)cc1 [Example 247, N-[5-[4-[4-[3-(2-methoxyethoxy)prop-1-ynyl]phenyl]piperidine-1-carbonyl]-2-methylphenyl]methanesulfonamide]",1780

# — patent US20090105305A1, “Therapeutic Agents - 550” (AstraZeneca AB, priority 2006, published 2009)
